The values that follow come from PubChem BioAssay AID330 (DTP/NCI, 2004).

The subject of the assay is P388 leukemia ip, CD2F1 mice, survival T/C. The assay is described as follows: NCI In Vivo Anticancer Drug Screen. Data for tumor model P388 Leukemia (intraperitoneal) in CD2F1 (CDF1) mice. As to conditions: endpoint: median survival time, higher = longer survival. Summed up:
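Mice carrying the transplanted tumor received test compound or vehicle. Survival was recorded in each group, and the value is the treated-group measurement divided by that of the vehicle-treated control group.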

[1] abbreviates: dose: 50.0 mg/kg/injection, schedule: Q01DX009 (ip), vehicle: Klucel (hydroxypropylcellulose) (HPC).
[2] abbreviates: dose: 100.0 mg/kg/injection, schedule: Q01DX009 (ip), vehicle: Klucel (hydroxypropylcellulose) (HPC).
Setting [3] is: dose: 200.0 mg/kg/injection, schedule: Q01DX009 (ip), vehicle: Klucel (hydroxypropylcellulose) (HPC).
Where [4] appears, read: dose: 100.0 mg/kg/injection, schedule: Q01DX001 (ip), vehicle: Klucel (hydroxypropylcellulose) (HPC).
Setting [5] is: dose: 200.0 mg/kg/injection, schedule: Q01DX001 (ip), vehicle: Klucel (hydroxypropylcellulose) (HPC).
Where [6] appears, read: dose: 400.0 mg/kg/injection, schedule: Q01DX001 (ip), vehicle: Klucel (hydroxypropylcellulose) (HPC).
[7] abbreviates: dose: 50.0 mg/kg/injection, schedule: Q01DX005 (ip), vehicle: Klucel (hydroxypropylcellulose) (HPC).
[8] abbreviates: dose: 100.0 mg/kg/injection, schedule: Q01DX005 (ip), vehicle: Klucel (hydroxypropylcellulose) (HPC).
Where [9] appears, read: dose: 200.0 mg/kg/injection, schedule: Q01DX005 (ip), vehicle: Klucel (hydroxypropylcellulose) (HPC).
The mark [10] stands for this setting: dose: 60.0 mg/kg/injection, schedule: Q01DX005 (ip), vehicle: Klucel (hydroxypropylcellulose) (HPC).
The mark [11] stands for this setting: dose: 120.0 mg/kg/injection, schedule: Q01DX005 (ip), vehicle: Klucel (hydroxypropylcellulose) (HPC).
Setting [12] is: dose: 240.0 mg/kg/injection, schedule: Q01DX005 (ip), vehicle: Klucel (hydroxypropylcellulose) (HPC).
Where [13] appears, read: dose: 50.0 mg/kg/injection, schedule: Q01DX009 (ip), vehicle: saline.
Where [14] appears, read: dose: 100.0 mg/kg/injection, schedule: Q01DX009 (ip), vehicle: saline.
Where [15] appears, read: dose: 50.0 mg/kg/injection, schedule: Q01DX005 (ip), vehicle: saline with Tween-80.
[16] abbreviates: dose: 100.0 mg/kg/injection, schedule: Q01DX005 (ip), vehicle: saline with Tween-80.
The mark [17] stands for this setting: dose: 200.0 mg/kg/injection, schedule: Q01DX005 (ip), vehicle: saline with Tween-80.
Where [18] appears, read: dose: 50.0 mg/kg/injection, schedule: Q01DX009 (ip), vehicle: saline with Tween-80.
Where [19] appears, read: dose: 100.0 mg/kg/injection, schedule: Q01DX009 (ip), vehicle: saline with Tween-80.
[20] abbreviates: dose: 200.0 mg/kg/injection, schedule: Q01DX009 (ip), vehicle: saline with Tween-80.
[21] abbreviates: dose: 25.0 mg/kg/injection, schedule: Q01DX009 (ip), vehicle: saline.

Values joined by “and” are separate entries in the source; they are usually repeats but may differ in a detail not shown here. Equal values may be shown once. Toxic doses and inconclusive results are not listed.

Turning to `NC(Cc1ccc2ccccc2c1Cl)C(=O)O` (stereo not given), the T/C is, setting by setting: under setting [1], 102 % of control; under setting [2], 100 % of control; under setting [3], 100 % of control.

On to `O=C1NCCN1C(=O)Nc1ccc(Cl)c(Cl)c1`, for which the T/C is, setting by setting: under setting [1], 116 % of control; under setting [2], 108 % of control; under setting [3], 110 % of control.

`NC(=O)NNc1cccc(Cl)n1`: the T/C is 96 % of control under setting [4], 101 % of control under setting [5] and 97 % of control under setting [6].

With `CSCCC(NC(=O)C(Cl)Cl)C(=O)O` (stereo not given), the T/C by setting is: under setting [7], 100 % of control; under setting [8], 96 % of control; under setting [9], 100 % of control.

`COc1c(Br)c2c(c([N+](=O)[O-])c1OC)C(=O)OC2C1c2c(cc3c(c2OC)OCO3)CCN1C` (stereo not given): the T/C is 91 % of control (dose: 25.0 mg/kg/injection, schedule: Q01DX005 (ip), vehicle: Klucel (hydroxypropylcellulose) (HPC)); 104 % of control under setting [7]; 104 % of control under setting [8]; 103 % of control under setting [9].

Regarding `C/C(=C\CC1C(=O)N(c2ccccc2)N(c2ccccc2)C1=O)CO`, the T/C under setting [10] was 100 % of control, the T/C under setting [11] is 100 % of control and the T/C under setting [12] was 91 % of control.

As for `CN1CCC(O)CC1C(=O)O` (stereo not given), the T/C is 98 % of control under setting [13]; 104 % of control under setting [14]; 105 % of control (dose: 200.0 mg/kg/injection, schedule: Q01DX009 (ip), vehicle: saline).

Turning to `Cc1cnn(C(C(=O)c2ccccc2)c2ccccc2)c1-c1ccccc1` (stereo not given), the T/C under setting [1] is 105 % of control, the T/C under setting [2] was 105 % of control and the T/C under setting [3] is 98 % of control.

As to `O=C(Nc1ccc(Sc2ccc(N=Nc3c(O)c(S(=O)(=O)O)cc4cc(S(=O)(=O)O)ccc34)cc2)cc1)c1ccc(N=Nc2ccc3c(S(=O)(=O)O)cccc3c2O)cc1`, the T/C is, setting by setting: under setting [15], 101 % of control; under setting [16], 102 % of control; under setting [17], 95 % of control.

Turning to `CCC1(c2ccccc2)SC(=O)NC1=O` (stereo not given), the T/C reads like this: under setting [18], 91 % of control; under setting [19], 91 % of control; under setting [20], 98 % of control.

Regarding `Clc1ccc(CSc2cnnc3ccccc23)c(Cl)c1`, the T/C (dose: 75.0 mg/kg/injection, schedule: Q01DX009 (ip), vehicle: suspension in saline) is 96 % of control; the T/C (dose: 150.0 mg/kg/injection, schedule: Q01DX009 (ip), vehicle: suspension in saline) was 89 % of control; the T/C (dose: 300.0 mg/kg/injection, schedule: Q01DX009 (ip), vehicle: suspension in saline) was 89 % of control.

Regarding `N#C/C(=C\c1ccncc1)c1ccccc1`, the T/C is 90 % of control (dose: 3.13 mg/kg/injection, schedule: Q01DX009 (ip), vehicle: saline with Tween-80); 95 % of control (dose: 6.25 mg/kg/injection, schedule: Q01DX009 (ip), vehicle: saline with Tween-80); 92 % of control (dose: 12.5 mg/kg/injection, schedule: Q01DX009 (ip), vehicle: saline with Tween-80); 109 % of control (dose: 25.0 mg/kg/injection, schedule: Q01DX009 (ip), vehicle: saline with Tween-80).

In the case of `CCc1nc(N)nc(N)c1-c1ccc(NCCc2ccccc2)c([N+](=O)[O-])c1`, the T/C is 101 % of control under setting [7]; 113 % of control and 124 % of control under setting [8]; 162 % of control under setting [9]; 98 % of control (dose: 400.0 mg/kg/injection, schedule: Q01DX005 (ip), vehicle: Klucel (hydroxypropylcellulose) (HPC)).

As to `O=C1c2ccccc2C2(O)C(=O)c3ccccc3C12` (stereo not given), the T/C was 102 % of control under setting [4], 105 % of control under setting [5] and 108 % of control under setting [6].

As for `N#CCCNc1cc(O)c2c(c1O)C(=O)c1ccccc1C2=O`, the T/C was 88 % of control (dose: 25.0 mg/kg/injection, schedule: Q01DX009 (ip), vehicle: other); 100 % of control (dose: 50.0 mg/kg/injection, schedule: Q01DX009 (ip), vehicle: other); 95 % of control (dose: 100.0 mg/kg/injection, schedule: Q01DX009 (ip), vehicle: other); 90 % of control (dose: 200.0 mg/kg/injection, schedule: Q01DX009 (ip), vehicle: other).

As to `OC1COC(c2ccccc2)OC1C1OC(c2ccccc2)OC2COC(c3ccccc3)OC21` (stereo not given), the T/C by setting is: under setting [18], 107 % of control; under setting [19], 96 % of control; under setting [20], 97 % of control.

Turning to `CCCc1nc(N)[nH]c(=O)c1I`, the T/C by setting is: under setting [7], 88 % of control; under setting [8], 95 % of control; under setting [9], 106 % of control.

With `COc1ccccc1N=C(C)C1C(=O)c2ccccc2C1=O`, the T/C by setting is: under setting [7], 104 % of control; under setting [8], 104 % of control; under setting [9], 100 % of control.

As to `CC(=O)OC1(C)CC1(C)C` (stereo not given), the T/C is, setting by setting: under setting [15], 100 % of control; under setting [16], 98 % of control; under setting [17], 98 % of control.

For `Cc1cc2c(cc1C)-c1nn(-c3ccccc3)c(-c3ccc(Cl)cc3)c1CCO2`, the T/C is 92 % of control (dose: 12.5 mg/kg/injection, schedule: Q01DX005 (ip), vehicle: saline with Tween-80); 99 % of control (dose: 25.0 mg/kg/injection, schedule: Q01DX005 (ip), vehicle: saline with Tween-80); 93 % of control and 94 % of control under setting [15].

Regarding `CCCCCCCCCCCCC[N+]1([O-])CCOCC1`, the T/C (dose: 12.5 mg/kg/injection, schedule: Q01DX009 (ip), vehicle: saline) was 101 % of control; the T/C under setting [21] was 100 % of control; the T/C under setting [13] was 89 % of control and 96 % of control.

On to `O=C(O)CSC(=O)Nc1ccc(N=Nc2ccccc2)cc1`, for which the T/C was 102 % of control under setting [15] and 91 % of control under setting [16].

In the case of `COC1(OC)C2C(Br)=C(Br)C1C1CCC/C=C\CC12` (stereo not given), the T/C runs as follows: (dose: 100.0 mg/kg/injection, schedule: Q04DX002 (ip), vehicle: saline with Tween-80) 103 % of control; (dose: 200.0 mg/kg/injection, schedule: Q04DX002 (ip), vehicle: saline with Tween-80) 103 % of control; (dose: 400.0 mg/kg/injection, schedule: Q04DX002 (ip), vehicle: saline with Tween-80) 109 % of control.

Consider `CC(C)(C)N(N)Cc1ccccc1`, for which the T/C was 99 % of control under setting [21], 104 % of control under setting [13] and 104 % of control under setting [14].

As for `O=C1OC(O)c2cccc3cccc1c23` (stereo not given), the T/C is 98 % of control under setting [10], 100 % of control under setting [11] and 94 % of control under setting [12].

As to `O=C1c2ccccc2NC(O)c2cccn21` (stereo not given), the T/C reads like this: (dose: 0.1 mg/kg/injection, schedule: Q01DX005 (ip), vehicle: water) 89 % of control; (dose: 0.2 mg/kg/injection, schedule: Q01DX005 (ip), vehicle: water) 91 % of control; (dose: 0.4 mg/kg/injection, schedule: Q01DX005 (ip), vehicle: water) 93 % of control; (dose: 0.8 mg/kg/injection, schedule: Q01DX005 (ip), vehicle: water) 91 % of control; (dose: 1.6 mg/kg/injection, schedule: Q01DX005 (ip), vehicle: water) 93 % of control; (dose: 5.0 mg/kg/injection, schedule: Q01DX005 (ip), vehicle: distilled water + Tween-80) 99 % of control. Besides, the T/C by setting is: (dose: 10.0 mg/kg/injection, schedule: Q01DX005 (ip), vehicle: distilled water + Tween-80) 99 % of control; (dose: 20.0 mg/kg/injection, schedule: Q01DX005 (ip), vehicle: distilled water + Tween-80) 99 % of control; (dose: 40.0 mg/kg/injection, schedule: Q01DX005 (ip), vehicle: distilled water + Tween-80) 100 % of control; (dose: 80.0 mg/kg/injection, schedule: Q01DX005 (ip), vehicle: distilled water + Tween-80) 95 % of control.

Regarding `Cc1cc(C2=CSC3=NCCN23)ccc1Cl`, the T/C is, setting by setting: under setting [15], 107 % of control; under setting [16], 105 % of control.
